# Tests used:
# [1] = molecular target: Electric eel AChE (type-VI-S) (Electrophorus electricus, UniProt O42275); assay: Anti-cholinesterase inhibition assay; type: biochemical
# [2] = molecular target: equine BChE (Equus caballus, UniProt P81908); assay: Anti-cholinesterase inhibition assay; type: biochemical
# Chain of equine BChE (P81908 whole entry): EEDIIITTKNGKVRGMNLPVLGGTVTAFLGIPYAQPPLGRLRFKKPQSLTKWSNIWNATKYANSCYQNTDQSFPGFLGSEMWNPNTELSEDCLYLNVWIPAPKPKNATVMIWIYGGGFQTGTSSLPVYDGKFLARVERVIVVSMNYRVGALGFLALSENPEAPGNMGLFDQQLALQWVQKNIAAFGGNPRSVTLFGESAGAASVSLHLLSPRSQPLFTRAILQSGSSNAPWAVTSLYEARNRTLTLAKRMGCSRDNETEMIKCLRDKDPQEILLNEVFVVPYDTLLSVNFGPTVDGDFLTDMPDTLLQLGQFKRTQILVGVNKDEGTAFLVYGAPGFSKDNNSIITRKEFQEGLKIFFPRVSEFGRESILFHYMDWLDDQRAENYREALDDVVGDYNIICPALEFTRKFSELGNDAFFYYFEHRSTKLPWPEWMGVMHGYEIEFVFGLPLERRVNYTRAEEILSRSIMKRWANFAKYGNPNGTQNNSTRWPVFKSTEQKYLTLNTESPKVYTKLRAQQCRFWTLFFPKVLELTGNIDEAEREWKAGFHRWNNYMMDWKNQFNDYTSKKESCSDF
# Chain of Electric eel AChE (type-VI-S) (O42275 24-633): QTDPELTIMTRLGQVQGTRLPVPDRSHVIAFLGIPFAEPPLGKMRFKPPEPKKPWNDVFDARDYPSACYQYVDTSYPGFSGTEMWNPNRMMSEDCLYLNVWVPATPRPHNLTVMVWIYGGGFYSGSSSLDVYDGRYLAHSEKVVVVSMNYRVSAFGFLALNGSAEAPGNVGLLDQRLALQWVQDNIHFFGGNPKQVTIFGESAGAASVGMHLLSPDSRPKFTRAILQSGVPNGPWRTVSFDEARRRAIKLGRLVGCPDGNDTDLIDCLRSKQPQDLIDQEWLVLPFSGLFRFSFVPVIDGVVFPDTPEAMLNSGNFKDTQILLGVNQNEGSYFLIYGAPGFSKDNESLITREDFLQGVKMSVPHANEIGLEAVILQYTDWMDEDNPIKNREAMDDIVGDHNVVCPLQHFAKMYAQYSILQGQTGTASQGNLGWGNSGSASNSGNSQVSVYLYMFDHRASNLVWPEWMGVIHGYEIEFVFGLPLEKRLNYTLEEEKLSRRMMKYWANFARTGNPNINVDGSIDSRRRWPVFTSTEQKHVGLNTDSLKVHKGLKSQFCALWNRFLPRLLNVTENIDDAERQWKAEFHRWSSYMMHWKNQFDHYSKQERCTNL
SMILES,IC50 [1],IC50 [2]
"CCOc1ccc(C=NNC(=S)NCC(=O)c2cccc(C)c2)cc1 [Compound 5, 2-(4-Ethoxybenzylidene)-N-(2-oxo-2-(m-tolyl)ethyl)hydrazine-1-carbothioamide]",295.12 ± 0.12 µM,–
"CCOc1ccc(C=NNC(=S)NCC(=O)c2ccc(Br)cc2)cc1 [Compound 6, N-(2-(4-Bromophenyl)-2-oxoethyl)-2-(4-ethoxybenzylidene)hydrazine-1-carbothioamide]",160.04 ± 0.02 µM,190.21 ± 0.13 µM
"CCOc1ccc(C=NNC(=S)NCC(=O)c2ccc(Cl)cc2)cc1 [Compound 7, N-(2-(4-Chlorophenyl)-2-oxoethyl)-2-(4-ethoxybenzylidene)hydrazine-1-carbothioamide]",140.52 ± 0.11 µM,–
"CCOc1ccc(C=NNC(=S)NCC(=O)c2ccccc2)cc1 [Compound 8, 2-(4-Ethoxybenzylidene)-N-(2-oxo-2-phenylethyl)hydrazine-1-carbothioamide]",220.22 ± 0.14 µM,260.21 ± 0.23 µM
"CCOc1ccc(C=NNC(=S)NCC(=O)c2ccccc2O)cc1 [Compound 9, 2-(4-Ethoxybenzylidene)-N-(2-(2-hydroxyphenyl)-2-oxoethyl)hydrazine-1-carbothioamide]",–,147.2 ± 0.09 µM
"CCOc1ccc(C=NNC(=S)NCC(=O)c2ccc(Cl)cc2Cl)cc1 [Compound 10, N-(2-(2,4-Dichlorophenyl)-2-oxoethyl)-2-(4-ethoxybenzylidene)hydrazine-1-carbothioamide]",275.71 ± 0.12 µM,–
"Cc1ccc(C(=O)CNC(=S)NN=Cc2ccc([N+](=O)[O-])cc2)cc1 [Compound 12, 2-(4-Nitrobenzylidene)-N-(2-oxo-2-(p-tolyl)ethyl)hydrazine-1-carbothioamide]",280.24 ± 0.21 µM,260.38 ± 0.25 µM
"O=C(CNC(=S)NN=Cc1ccc([N+](=O)[O-])cc1)c1ccccc1Br [Compound 17, N-(2-(2-Bromophenyl)-2-oxoethyl)-2-(4-nitrobenzylidene)hydrazine-1-carbothioamide]",114.6 ± 0.15 µM,150.4 ± 0.18 µM

# Source: publication PMC9910069 (ACS Omega, 2023)
